According to US6603046B1, “Bis-aromatic a,β-unsaturated ketones” (Lica Pharmaceuticals A/S, priority 1992, dated 2003):
Read-outs that look alike come from different tables or passages of the source.

Experiments:
L. major promastigotes = L. major promastigotes from 4-days cultures, 3H-thymidine uptake (Examples 5, 14); assay type: cell-based, Leishmania major; conditions: for inhibition at 0.5 µg/mL / inhibition at 1 µg/mL / inhibition at 5 µg/mL / inhibition at 10 µg/mL: Leishmania major; for inhibition at 0.5 µg/mL: 0.5 μg/ml; for inhibition at 1 µg/mL: 1 μg/ml; for inhibition at 5 µg/mL: 5 μg/ml; for inhibition at 10 µg/mL: 10 μg/ml
Description: Parasite cultures. The same parasite culture as described in Example 4. Promastigotes were harvested on day 4 of the culture and used for the parasiticidal assay.
Effect on promastigotes. […] Following incubation, […] of ^3H-thymidine was added to each well and further incubated for 18 hrs. Promastigotes were then harvested on filter paper by means of a cell harvester (Skatron, Lierbyen, Norway), extensively washed with distilled water and counted in a scintillation counter (Minaxi Ti-Carb 4000, United Technologies, Packard, USA).
L. major promastigotes. The L. major promastigotes were prepared as described in Example 4 and harvested after 4 days.

human lymphocytes = test: Lymphocyte Proliferation Assay, 3H-thymidine incorporation (Example 13); conditions: Homo sapiens, Lymphocyte, read-out: inhibition of lymphocytes (lower figure)
[1] = read-out: percentage inhibition of 3H-thymidine uptake (mean ± SEM), Table 5.1
[2] = Table 14.1, read-out: percentage inhibition of promastigotes (upper figure)

| SMILES | inhibition at 0.5 µg/mL (L. major promastigotes; [1]) [%] | inhibition at 1 µg/mL (L. major promastigotes; [1]) [%] | inhibition at 5 µg/mL (L. major promastigotes; [1]) [%] | inhibition at 10 µg/mL (L. major promastigotes; [1]) [%] | inhibition at 0.5 µg/mL (L. major promastigotes; [2]) [%] | inhibition at 1 µg/mL (L. major promastigotes; [2]) [%] | inhibition at 5 µg/mL (L. major promastigotes; [2]) [%] | inhibition at 10 µg/mL (L. major promastigotes; [2]) [%] | inhibition at 0.5 µg/mL (human lymphocytes) [%] | inhibition at 1 µg/mL (human lymphocytes) [%] | inhibition at 5 µg/mL (human lymphocytes) [%] | inhibition at 10 µg/mL (human lymphocytes) [%] | activity against Leishmania parasites in vitro (L. major promastigotes) |
| --- | --- | --- | --- | --- | --- | --- | --- | --- | --- | --- | --- | --- | --- |
| COCCOCOc1ccc(C(=O)/C=C/c2ccc(OC)cc2OC)cc1 | 20 | 14 | 31 | 60.5 ± 5.6 | – | – | – | – | – | – | – | – | – |
| O=C(/C=C/c1ccc(O)c(O)c1)c1ccc(O)cc1O | – | – | – | – | 7 | 8 | 4.2 | 10.6 | 0 | 1 | 12 | 51 | – |
| O=C(/C=C/c1ccccc1)c1ccc(F)cc1 | – | – | – | – | – | – | 88 | 99 | – | – | – | – | – |
| COc1cc(OC)c(/C=C/C(=O)c2ccc(O)cc2)c(OC)c1 | – | – | – | – | 25 ± 9.5 | 25.6 ± 10.9 | 23.6 ± 10.9 | 25.1 ± 17.3 | 0 | 0 | 48 | 63.6 | – |
| COc1ccc(/C=C/C(=O)c2ccc(OC)cc2)cc1 | – | – | – | – | 11.7 ± 9.2 | 8.3 ± 4.6 | 35.6 ± 23.4 | 51.8 ± 15.8 | 0 | 0 | 0 | 0 | – |
| C=CCOc1ccc(C(=O)/C=C/c2ccccc2OC)cc1 | – | – | – | – | 20.9 ± 7.7 | 25.8 ± 15.3 | 52.8 ± 19.1 | 76.6 ± 22.4 | 0 | 0 | 1.1 | 80.1 | – |
| COc1ccc(/C=C/C(=O)c2ccccc2OCC=C(C)C)c(OC)c1 | – | – | – | – | 4.3 | 1.8 | 49 | 83.2 | 7.1 | 6.6 | 8.7 | 35.9 | – |
| C=CCOc1ccc(C(=O)/C=C/c2c(OC)cc(OC)cc2OC)cc1 | – | – | – | – | 25 to 44 | 15 to 46 | 14 to 50 | 22 to 49 | 8 | 12 | 24 | 48 | – |
| C=CCOc1ccc(C(=O)/C=C/c2cc(OC)c(OC)c(OC)c2)cc1 | – | – | – | – | 11 to 45 | 16 to 47 | 44 to 60 | 86 to 91 | 4 | 4 | 38 | 98 | – |
| C=CCOc1ccc(C(=O)/C=C/c2cc(OC)c(OC)cc2OC)cc1 | – | – | – | – | 24 ± 12 | 23.8 ± 12.5 | 23.2 ± 12.8 | 28.8 ± 16 | 0 | 0 | 0 | 27.6 | – |
| COCCOCOc1ccc(C(=O)/C=C/c2ccc(OCC=C(C)C)cc2OC)cc1 | – | – | – | – | 11.5 | 14 | 33.1 | 61.5 | 0 | 8.1 | 14.1 | 28.3 | – |
| COc1ccc(/C=C/C(=O)c2ccc(OCOC(=O)C(C)(C)C)cc2)c(OC)c1 | – | – | – | – | 3.9 | 0 | 7.9 | 28.6 | 7.1 | 8.2 | 9 | 32.7 | – |
| O=C(c1ccccc1)C1OC1c1ccccc1 (stereo not drawn) | – | – | – | – | 28.4 ± 13 | 33.4 ± 15.4 | 73.2 ± 17.8 | 88 ± 7.5 | 0 | 0 | 2 | 85.4 | – |
| COc1ccc(CCC(=O)c2ccco2)c(OC)c1 | – | – | – | – | 9.5 | 9.4 | 55.1 | 89.6 | 3.6 | 11.7 | 33.6 | 41.9 | – |
| COc1ccc(CCC(=O)c2ccc[nH]2)c(OC)c1 | – | – | – | – | 0.6 | 9.4 | 18.5 | 40.6 | 10 | 2 | 20 | 41.9 | – |
| COc1ccc(CCC(=O)c2ccc(O)cc2)c(OC)c1 [3-(2,4-dimethoxyphenyl)-1-(4-hydroxyphenyl)propan-1-on, reference compound] | – | – | – | – | – | – | – | – | – | – | – | – | very low activity |
